Data on seven compounds can be found in article PMC5503601 (Oncotarget, 2017).

One series deals with T1, TOPK (Homo sapiens, UniProt Q96KB5).
T1 construct: hexa-histidine; made in house; host or cells: Escherichia coli BL21 (DE)
T1 sequence (Q96KB5 1-322): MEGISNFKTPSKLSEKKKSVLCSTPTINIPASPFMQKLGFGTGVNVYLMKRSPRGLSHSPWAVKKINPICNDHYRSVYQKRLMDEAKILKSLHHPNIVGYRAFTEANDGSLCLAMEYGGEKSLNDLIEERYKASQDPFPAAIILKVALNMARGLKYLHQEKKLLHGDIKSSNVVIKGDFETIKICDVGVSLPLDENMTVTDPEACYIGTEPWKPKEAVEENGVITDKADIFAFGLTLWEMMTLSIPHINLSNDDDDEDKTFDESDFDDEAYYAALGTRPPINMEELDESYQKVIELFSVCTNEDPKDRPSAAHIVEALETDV
Kind of series: Microscale thermophoresis (MST) binding assay. As to conditions: labeled TOPK 50 nM, 25°C, means ± SD for three experiments. From the text: To validate results of the virtual ligand screening, we employed microscale therm ophoresis method (MST) to assay the binding affinity between compounds and TOPK. This technology detected fluorescent changes of molecules during thermophoresis, to quantify protein-protein interactions or protein-small molecule interactions with high sensitivity and low sample cost.
Human TOPK gene (Accssion number: NM_018492) was cloned into the pET26b vector (Novagen). The expression construct pET26b-TOPK was transformed into Escherichia coli strain BL21 (DE) (Invitrogen) and selected on kanamycin plates. The transformed cells were cultivated in Luria-Bertani (LB) media at 37°C in the presence of kanamycin until the optical density (OD) reached 0.8. Cells were then induced with 0.4 mM IPTG (isopropyl-β-D-1-thiogalactopyranoside) for 16 h at 20°C. The cells harvested by centrifugation were lysed by ultrasonication on ice in a buffer containing 20 mM Tris, pH 8.5, 200 mM NaCl, 5 mM mercaptoethanol, 0.1% TritonX-100, and 5% glycerol.
Soluble hexa-histidine tagged TOPK was bound to Ni-agarose affinity resin (Qiagen), washed with buffer A (20 mM Tris, pH 8.5, 200mM NaCl, and 10 mM imidazole), and eluted with buffer B (20 mM Tris, pH 8.8, 250 mM NaCl, and 150 mM imidazole).
Recombinant TOPK was labeled with the Monolith NT™ Protein Labeling Kit RED (Cat # L001) according to the supplied labeling protocol. Labeled TOPK was used in a concentration of 50 nM. The samples were diluted in a 20 mM HEPES (pH 7.4) and 0.5 (v/v) % Tween-20. The prazoles stocks were dissolved in 10% DMSO in a concentration of 1 mM. 1mM prazoles were used as the highest concentration for serial dilutions. After 10minutes incubation at room temperature, the samples were loaded into Monolith^TM standard-treated capillaries and the thermophoresis was measured at 25°C after 30 minutes incubation on a Monolith NT.115 instrument (NanoTemper Technologies, München, Germany). Laser power was set to 20% using 30 seconds on-time. The LED power was set to 100%. The dissociation constant Kd values were fitted by using the NTAnalysis software (NanoTemper Technologies, München, Germany).

Series [1] relates to HCT116 cells. Nature of the series: Cell viability (cck8) assay, HCT116. The class given is cell-based. As to conditions: Homo sapiens, HCT-116, read-out: IC50 for HCT116 cell activities. Here is the method: (§1) To estimate cell viability, human colon cancer HCT 116, ES-2, A549 and SW1990 cells (5000 cells/well) were seeded in 96-well plates for 24 h at 37°C in a 5% CO2 incubator. […] All experiments were performed in triplicate, and the mean absorbance values were calculated.

Details of series [2]: method as in SciFinder Academic database. The following applies: ref SciFinder Academic database; cited from earlier work.
For series [3], the system named is ES-2 cells. Nature of the series: Cell viability (cck8) assay, ES-2. It is filed as cell-based. As to conditions: Homo sapiens, read-out: IC50, growth of ES-2 cells. Here is the method: as §1
Series [4] has as its system A549, HCT116, ES-2 and SW1990 cells. Nature of the series: Cell viability (cck8) assay, 4 TOPK-positive cancer cell lines. The class given is cell-based. The following applies: Homo sapiens; range over A549, HCT116, ES-2, SW1990; read-out: IC50 values, growth inhibition across the cell lines. Here is the method: TOPK protein levels were measured by western blot in cancer cell lines derived from various cancer types, such as lung cancer (A549), colon cancer (HCT116), human ovarian cancer (ES-2) and pancreatic cancer cell (SW1990).
as §1

For series [5], the system named is HCT116 cells. Kind of series: Apoptosis by flow cytometry (Annexin V/propidium iodide), HCT116. It is filed as cell-based, human. The following applies: HCT116, 50 μM, 24 h; control 2%. Here is the method:
(§2) Cells were pre-treated with different concentrations of ilaprzole for 24 h, and then the cellular apoptosis was measured by using flow cytometry. […] Apoptotic cells were assessed by staining PBS washed cells with phycoerythrin (PE)-conjugated annexin-V (BD Pharmingen) for 10-15 minutes in incubation buffer (Annexin-V-FLUOS Staining Kit, Roche). Fluorescence was recorded by flow cytometry using the FACS Aria (BD Bio sciences).
On the technique in general: Flow cytometry measures light scatter and fluorescence of single cells or particles in a stream.

Series [6] has as its system ES-2 cells. Nature of the series: Apoptosis by flow cytometry (Annexin V/propidium iodide), ES-2. As to conditions: ES-2, 50 μM, 24 h; control 2%. The class given is cell-based, human. On the procedure: as §2
The subject of series [7] is TOPK activity (phosphorylation of histone H3 Ser10) in HCT116 cells. Nature of the series: Western blot of phosphorylated histone H3 (Ser10), HCT116. It is filed as cell-based, human. Here is the method:
(§3) TOPK proteins were expressed mainly around chromosomal surfaces in mitotic cells, particularly at prophase and metaphase, so the histone was chosen as the substrate for TOPK activity evaluation. Some reports confirmed that TOPK could phosphorylate histone H3 in vitro and in vivo. […] (Figure 3a, 3b, Supplementary Figure 1a, 1b)
(§4) Histones were extracted from cells by disrupting the cells with NETN buffer [150 mM NaCl, 1 mM EDTA, 20 mM Tris-HCl (pH 8.0), 0.5% nonionic detergent IGEPAL CA 630(NP-40), Sigma]. The insoluble fraction was pelleted for 5 minutes in a microcentrifuge (8,400 rpm). Nuclei were extracted with 0.1 M HCl to isolate the total histones. The samples were precipitated with 1 M Tris- HCl (pH 8.0) and then resuspended in ddH2O.
(§5) The harvested cells were lysed with lysis buffer (50 mM Tris-HCl (pH 7.4), 150 mM NaCl, 1 mM EDTA, 1 mM EGTA, […], 5 mM phenylmethanesulfonyluoride (PMSF), 1 mM dithiolthreitol (DTT) containing 1% Triton X-100). Insoluble debris was removed by centrifugation at 12000 rpm for 15 minutes, and protein's content was determined using Bradford reagent (Bio-Rad, USA). Lysate protein (20-40 μg) was subjected to 10% SDS-PAGE and electrophoretically transferred to polyvinylidene difluoride membranes (PVDF) (Millipore, USA). […] Band density was quantified using the Image J software program (NIH).

Series [8] relates to TOPK activity (phosphorylation of histone H3 Ser10) in ES-2 cells. Nature of the series: Western blot of phosphorylated histone H3 (Ser10), ES-2. The class given is cell-based, human. On the procedure: as §3, §4, §5
Background: Immunoblotting shows a protein as a band on a membrane.

In series [9] the test system is HCT116 cells. Kind of series: Cell cycle distribution by flow cytometry, HCT116. It is filed as cell-based, human. As to conditions: HCT116, increasing doses, 48 hours.
Series [10] relates to shTOPK and shMock infected cancer cells. Nature of the series: Growth of shMock versus shTOPK infected cells (CCK8). The class given is cell-based, human. The following applies: 48 hours. From the text: To investigate the growth-promoting role of TOPK in cancer cells, the expression of endogenous TOPK was knocked down in four cancer cells. By lentiviral infection, HCT116, ES-2, A549 and SW1990 cell lines stably expressing low levels of TOPK (shTOPK) were established. As the control, cells were infected with shMock. The abundance of TOPK in these cells was confirmed by western blot analysis (Figure 2a).
The effect of ilaprazolewas examined in shMock and knockdown cell lines with shTOPK. Cells were incubated for 48 hours and growth was determined by cck8 assay.
“The target sequences of oligo siRNAs were as follows: 5′-[…] -3′ for TOPK to produce lentiviral particles.”
The transfection medium was changed at 4 hours after transfection and then cells were cultured for 36 hours. The viral particles were harvested by filtration using a […] syringe filter, then combined with […] of polybrene (Millipore) and infected into 60% confluent HCT-116 cells overnight. The cell culture medium was replaced with fresh complete growth medium for 24 hours and then cells were selected with puromycin ([…]) for 36 hours. The selected cells were used for experiments.

The next series has as its system HCT116 xenograft. Nature of the series: HCT116 xenograft mouse model, tumor growth. It is filed as in vivo, CB-17/Icr-scid mice. As to conditions: for tumor weight: control 1.45 ± 0.33 g. Here is the method: (§6) Estimated tumor volumes of both treating groups were less than that of the control group throughout the treatment. […] Animals were then scarified and the average tumor weights were measured and calculated. The tumor weight of the control group was 1.45 ± 0.33 g, whereas the tumor weights of low-dose and high-dose treated groups were 0.67 ± 0.21g and 0.52 ± 0.11g, respectively (Figure 5c), representing significant reduction.
(§7) CB-17/Icr-scid mice were purchased from Beijing HFK Bioscience CO., LTD (Beijing, China). The animals were maintained under ‘specific pathogen free’ conditions. The mice were randomly divided into three groups: (i) vehicle group (n = 8); (ii) 150 mg/kg ilaprazole-treated group (n = 8); (III) 75 mg/kg ilaprazole-treated group. HCT 116 cells were inoculated subcutaneously (2 × 10^6 cells) into the left flank of each mouse in all groups. Treatment was started after 4 days of cell injection. The duration of the animal study was 19 days. The tumor volume was calculated from measurements of 3 diameters of the individual tumor based on the following formula:
tumor volume (mm^3) = (length × width × height × 0.52). The mice were monitored until tumors reached 1 cm^3 total volume, at which the mice were euthanized and the tumors were extracted. The tumors were dissected and sent for immune-histochemical analysis.

Series [11] in a line: HCT116 xenograft mouse model, toxicity and body weight. It is filed as in vivo, CB-17/Icr-scid mice. Here is the method: as §6
as §7, with “formula: […]” for “formula:”

For series [12] the following is noted: rat, in vivo; cited from earlier work.

Values joined by “and” are separate entries in the source; they are usually repeats but may differ in a detail not shown here. Equal values may be shown once. Read-outs that look alike come from different tables or passages of the source.

For the compound `COc1ccnc(C[S+]([O-])c2nc3ccc(OC(F)F)cc3[nH]2)c1OC` (centres unmarked) [Pantoprazole, pantoprazole], the Kd (as a rule, the equilibrium constant for the complex coming apart) on TOPK (read-out: Kd) was 24 µM and 24.2 µM. Besides, the IC50 (as a rule, the midpoint of a concentration-inhibition curve) in the series on HCT116 cells [1] turned out to be 153 ± 8.5 µM. In series [2], the logP value is 1.571 ± 1.065.
As for `COCCCOc1ccnc(C[S+]([O-])c2nc3ccccc3[nH]2)c1C` (centres unmarked) [Rabeprazole, rabeprazole], the Kd on TOPK (read-out: Kd) was 324 µM. Besides, in the series on HCT116 cells [1], the IC50 is more than 500 µM.
Regarding `COc1ccc2nc([S@@+]([O-])Cc3ncc(C)c(OC)c3C)[nH]c2c1` [Esomeprazole, esomeprazole], the Kd entry at TOPK is given as “n.b^c”. For the same compound, the IC50 with HCT116 cells [1] is more than 500 µM.
Consider `COc1ccc2[nH]c([S+]([O-])Cc3ncc(C)c(OC)c3C)nc2c1` (centres unmarked) [Omeprazole, omeprazole], for which the Kd on TOPK (read-out: Kd) worked out at 174 µM. Moreover, the IC50 with HCT116 cells [1] amounted to 348 ± 7.3 µM.
As to `Cc1c(OCC(F)(F)F)ccnc1C[S+]([O-])c1nc2ccccc2[nH]1` (centres unmarked) [Lansoprazole, lansoprazole], the Kd on TOPK (read-out: Kd) was 241 µM and 242 µM. The IC50 in the series with HCT116 cells [1] was 103 ± 4.1 µM.
For `CCSc1ccnc(C[S+]([O-])c2nc3ccccc3[nH]2)c1C` (centres unmarked) [Disuprazole, disuprazole], the Kd result at TOPK was “n.b^c”. In the series on HCT116 cells [1], the IC50 is more than 500 µM.
With `COc1ccnc(C[S+]([O-])c2nc3cc(-n4cccc4)ccc3[nH]2)c1C` (centres unmarked) [Ilaprazole, ilaprazole], the Kd on TOPK (read-out: Kd) stood at 111 ± 2.3 µM. Further, the results for the IC50 (in the series with HCT116 cells [1]; in the series with ES-2 cells [3]; in series [4]) were 40 ± 0.6 µM, 33.2 ± 1 µM and 30.1 to 148 µM, respectively. Moreover, the apoptotic death in the series on HCT116 cells [5] is on record as 32.03%; with ES-2 cells [6], 7.62%. Moreover, the “phosphorylation of histone H3 (Ser10)” value in series [7] and in series [8] was “substantially attenuated in a dose-dependent manner” throughout. Also, the cell cycle distribution result in the series with HCT116 cells [9] is “cell cycle arrested at the G1 phase”. Also, the “growth inhibition of shTOPK cells compared with shMock cells” value in [10] was “resistant to the inhibitory effect”. Also, the tumor weight in the series on HCT116 xenograft (75 mg/kg daily via gavage (low-dose)) turned out to be 0.67 ± 0.21 g; with HCT116 xenograft (150 mg/kg daily via gavage (high-dose)), 0.52 ± 0.11 g. In addition, the tumor volume entry in the series with HCT116 xenograft (75 and 150 mg/kg daily via gavage, after 2 weeks' treatment) is reported as “Significant decreases”. In the series on HCT116 xenograft (ilaprazole-treated groups versus vehicle group), the “phosphorylated histone H3 in tumor tissues (immunohistochemistry)” value is “substantially decreased”. Moreover, in series [11] (mice treated daily for 15 days), the “microstructures of sections of the liver, kidney and spleen” value is reported as “No significant damage”. In addition, the hepatotoxicity and nephrotoxicity result in series [11] (mice, 75 and 150 mg/kg oral) was “no obvious hepatotoxicity and nephrotoxicity”. The mouse body weight entry in [11] (mice, 75 and 150 mg/kg via gavage) is “no effect”. Besides, the logP value in [2] was 2.882 ± 1.045. For the same compound, the LD50 result in series [12] is “more than 5000 mg/kg”.
